Like-named read-outs stand apart in the source and are kept apart here.
Legend:
rhodesain = rhodesain (Trypanosoma brucei rhodesiense, UniProt Q95PM0); test: Cysteine protease inhibition assay, rhodesain; type: biochemical; settings: for IC50 (μM) Cysteine Protease rho (rhodesain): rhodesain 4 nM, Z-Phe-Arg-AMC 10 μM, pH 5.5
TbCatB = TbCatB (Trypanosoma brucei, UniProt Q6R7Z5); test: Cysteine protease inhibition assay, TbCatB; type: biochemical; settings: TbCatB 258 nM, Z-Phe-Arg-AMC 10 μM, pH 5.5
[1] = system: Jurkat cells (clone E6-1); test: Jurkat cell cytotoxicity assay; type: cell-based; settings: for Selectivity Index = (IC50 Jurkat) / (IC50 T. brucei): Jurkat vs T. brucei; for IC50: read-out: IC50 (μM) Jurkat
T. brucei brucei = test: Trypanosoma brucei brucei growth inhibition assay; type: cell-based; settings: bloodstream forms clone 427-221a, 40 hours, ATP-bioluminescence, ± standard deviation of the mean
animals = settings: cited from earlier work
patients = settings: clinical use, second stage sleeping sickness; cited from earlier work
[2] = system: human lung carcinoma (A549) cells; settings: at 1 μM; cited from earlier work
[3] = Jurkat cells, 40 hr, ATP-bioluminescence

For `CS[C@]1(CO)C(=O)N2[C@H]3C(=CC=C[C@@H]3O)C[C@@]2(SC)C(=O)N1C` [Compound 3, bis(methylthio)gliotoxin], the “IC50 (μM) Cysteine Protease rho (rhodesain)” value (from here on “IC50 … (rhodesain)”) (rhodesain) was “inactivity”, the “IC50 (μM) Cysteine Protease Tbc (TbcatB)” value (TbCatB) was “inactivity” and the “IC50 (μM) Jurkat” value [1, 3] was “not being toxic”.

For `CS[C@]1(CO)C(=O)N2c3c(O)cccc3C[C@@]2(SC)C(=O)N1C` [Compound 4, dehydrobis(methylthio)gliotoxin], the “IC50 (μM) T. brucei” value (T. brucei brucei) was “trypanocidal in the low micromolar range”, the “IC50 … (rhodesain)” value (rhodesain) was “binds to rhodesain” and the “Selectivity Index = (IC50 Jurkat) / (IC50 T. brucei)” value [1] was greater than 15.

With `CS[C@]1(CO)C(=O)N2[C@H]3C(=CC=C[C@@H]3OC(C)=O)C[C@@]2(SC)C(=O)N1C` [Compound 7, 6-acetylbis(methylthio)gliotoxin] the “IC50 (μM) T. brucei” value (T. brucei brucei) was “trypanocidal in the low micromolar range”, the “IC50 … (rhodesain)” value (rhodesain) was “binds to rhodesain” and the “Selectivity Index = (IC50 Jurkat) / (IC50 T. brucei)” value [1] was greater than 15.

In the case of `CS[C@]1(Cc2c[nH]c3ccccc23)NC(=O)[C@](CO)(SC)N(C)C1=O` [Compound 8, chetoseminudin B], the “IC50 … (rhodesain)” value (rhodesain) is reported as “inactivity” and the “IC50 (μM) Cysteine Protease Tbc (TbcatB)” value (TbCatB) is reported as “inactivity”.

In the case of `CN1C(=O)[C@]23CC4=CC=C[C@H](O)[C@H]4N2C(=O)[C@@]1(CO)SS3` [Compound 10, gliotoxin, reference compound], the “IC50 (μM) T. brucei” value (T. brucei brucei) is reported as “nanomolar activity”, the “IC50 (μM) Cysteine Protease Tbc (TbcatB)” value (TbCatB) is reported as “showed inhibition of TbCatB” and the “IC50 (μM) Jurkat” value [1, 3] is reported as “substantial toxicity to mammalian cells”. The “Selectivity Index = (IC50 Jurkat) / (IC50 T. brucei)” value [1] was “low ^g (Toxic to Jurkat cells at <1 μM)”.

With `CN1C(=O)[C@]23SS[C@@]1(C)C(=O)N2[C@H]1Nc2ccccc2[C@@]1([C@@]12c4ccccc4N[C@@H]1N1C(=O)[C@]4(CO)SS[C@]1(C(=O)N4C)[C@H]2O)[C@@H]3O` [Compound 11, verticillin B] the “IC50 (μM) T. brucei” value (T. brucei brucei) was “nanomolar activity”, the “IC50 (μM) Jurkat” value [1, 3] was “substantial toxicity to mammalian cells” and the “Selectivity Index = (IC50 Jurkat) / (IC50 T. brucei)” value [1] was “low (Toxic to Jurkat cells at <1 μM)”.

With `CN1C(=O)[C@@]23C[C@]4([C@]56C[C@@]78SS[C@@](CO)(C(=O)N7[C@H]5Nc5ccccc56)N(C)C8=O)c5ccccc5N[C@@H]4N2C(=O)[C@]1(CO)SS3` [Compound 12, chaetocin] the “IC50 (μM) T. brucei” value (T. brucei brucei) was “nanomolar activity”, the “IC50 (μM) Jurkat” value [1, 3] was “substantial toxicity to mammalian cells” and the “Selectivity Index = (IC50 Jurkat) / (IC50 T. brucei)” value [1] was “low (Toxic to Jurkat cells at <1 μM)”.

In the case of `COc1ccc2c3c4n(c2c1)[C@H](C=C(C)C)OOC(C)(C)C[C@@H]4N1C(=O)[C@@H]2CCCN2C(=O)[C@]1(O)[C@H]3O` [Compound 17, verruculogen], the tremors in animals (animals) is given as “cause tremors in animals”.

In the case of `COc1ccc2c3c([nH]c2c1)C(C=C(C)C)N1C(=O)C2CCCN2C(=O)C1(O)C3O` (stereo not drawn) [Compound 20, 12,13-dihydroxyfumitremorgin C], the “IC50 (μM) T. brucei” value (T. brucei brucei) is reported as “trypanocidal in the low micromolar range”, the IC50 (rhodesain) is reported as 10.9 µM and the “IC50 … (rhodesain)” value (rhodesain) is reported as “binds to rhodesain”. The IC50 ([1]; Homo sapiens, Jurkat, 40 h) was 97.2 µM and the “Selectivity Index = (IC50 Jurkat) / (IC50 T. brucei)” value [1] was greater than 15.

In the case of `Nc1nc(N)nc(Nc2ccc([As]3SCC(CO)S3)cc2)n1` (stereo not drawn) [Compound 25, melarsoprol], the mortality rate (patients) is listed as “approximately 5%”.

For fumitremorgin B [Compound 19], the IC50 (T. brucei brucei; read-out: IC50 (μM) T. brucei) was 19.5 ± 5.9 µM, the “Selectivity Index = (IC50 Jurkat) / (IC50 T. brucei)” value [1] was 5.3 and the IC50 [1, 3] was 104 µM. For the same compound, the tremors in animals (animals) was “cause tremors in animals”.

For phenylahistin [Compound 2a], the “cell cycle inhibition activity” value [2] is listed as “cell cycle inhibition activity in the G2/M phase”.

— PMC2893881 (Bioorganic & medicinal chemistry, 2010)
